Assay results: PubChem BioAssay (NCI)
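Following 48 hours of exposure in 96-well plates, responses at five concentrations were used to interpolate endpoints linearly. The concentration for full growth arrest is given as TGI.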

How the values were obtained:
Experiment in all cases: NCI tumour cell line growth inhibition, 48 h
[1] = tested on: SNB-19 CNS
[2] = tested on: RPMI-8226 leukemia
[3] = tested on: RXF 393 renal
[4] = tested on: PC-3 prostate
[5] = tested on: TK-10 renal
[6] = tested on: MCF7 breast
[7] = tested on: LOX IMVI melanoma
[8] = tested on: SN12C renal
[9] = tested on: CCRF-CEM leukemia
[10] = tested on: SK-MEL-5 melanoma
[11] = tested on: ACHN renal
[12] = tested on: SNB-75 CNS
[13] = tested on: OVCAR-4 ovarian
[14] = tested on: A498 renal
[15] = tested on: HS 578T breast
[16] = tested on: KM12 colon
[17] = tested on: MALME-3M melanoma
[18] = tested on: COLO 205 colon
[19] = tested on: UO-31 renal
[20] = tested on: HT29 colon
[21] = tested on: HOP-92 NSCLC
[22] = tested on: SK-MEL-28 melanoma
[23] = tested on: CAKI-1 renal
[24] = tested on: HOP-62 NSCLC
[25] = tested on: K-562 leukemia
[26] = tested on: MDA-MB-231 breast
[27] = tested on: BT-549 breast
[28] = tested on: 786-0 renal
[29] = tested on: DU-145 prostate
[30] = tested on: SW-620 colon
[31] = tested on: SF-539 CNS
[32] = tested on: UACC-62 melanoma
[33] = tested on: NCI-H460 lung
[34] = tested on: MOLT-4 leukemia
[35] = tested on: MDA-N
[36] = tested on: NCI-H23 lung
[37] = tested on: HCT-15 colon
[38] = tested on: SR leukemia
[39] = tested on: MDA-MB-435
[40] = tested on: OVCAR-5 ovarian
[41] = tested on: NCI/ADR-RES ovarian
[42] = tested on: HCT-116 colon
[43] = tested on: UACC-257 melanoma
[44] = tested on: SK-MEL-2 melanoma
[45] = tested on: T-47D breast
[46] = tested on: OVCAR-3 ovarian
[47] = tested on: EKVX NSCLC
[48] = tested on: HCC-2998 colon
[49] = tested on: A549 NSCLC
[50] = tested on: SK-OV-3 ovarian
[51] = tested on: OVCAR-8 ovarian
[52] = tested on: IGROV1 ovarian
[53] = tested on: U251 CNS
[54] = tested on: M14 melanoma
[55] = tested on: SF-268 CNS
[56] = tested on: SF-295 CNS
[57] = tested on: NCI-H226 lung
[58] = tested on: NCI-H522 lung
[59] = tested on: HL-60(TB) leukemia

Measured: TGI

CC(C)(C)C(=O)OCC1CCC[N+]2(C)CCCCC12 (stereo unspecified)
not listed: [58] | [59]
> 100 µM: all other assays above

NNC(N)Nc1ccccc1 (stereo unspecified)
not listed: [2] | [7] | [12] | [28] | [42]
> 100 µM: all other assays above
